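Compound exposure: 48 hours, 5 concentrations, 96-well plates. GI50 is the concentration that inhibits growth by half. TGI is the concentration that stops growth completely.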
Tests used:
Test in all cases: NCI tumour cell line growth inhibition, 48 h
KM12 colon = system: KM12 colon
SW-620 colon = system: SW-620 colon
CAKI-1 renal = system: CAKI-1 renal
NCI-H23 lung = system: NCI-H23 lung
HOP-62 NSCLC = system: HOP-62 NSCLC
NCI-H460 lung = system: NCI-H460 lung
OVCAR-3 ovarian = system: OVCAR-3 ovarian
UACC-62 melanoma = system: UACC-62 melanoma
OVCAR-8 ovarian = system: OVCAR-8 ovarian
SNB-19 CNS = system: SNB-19 CNS

Compound Nc1c(S(=O)(=O)O)cc(S(=O)(=O)O)c2ccc(N=Nc3ccccc3)c(O)c12 has a TGI (KM12 colon) of over 100 µM, a TGI (SW-620 colon) of over 100 µM and a TGI (CAKI-1 renal) of over 100 µM. The TGI (NCI-H23 lung) was over 100 µM, the TGI (HOP-62 NSCLC) was over 100 µM and the TGI (NCI-H460 lung) was over 100 µM. The TGI (OVCAR-3 ovarian) was over 100 µM, the TGI (UACC-62 melanoma) was over 100 µM and the TGI (OVCAR-8 ovarian) was over 100 µM. For the same compound, the TGI (SNB-19 CNS) was over 100 µM.
Cc1cn(CC(=S)NCCc2c[nH]c3ccccc23)c(=O)[nH]c1=O showed a TGI (KM12 colon) of over 100 µM, a TGI (SW-620 colon) of over 100 µM and a TGI (NCI-H23 lung) of over 100 µM. For the same compound, the TGI (HOP-62 NSCLC) was over 100 µM, the TGI (OVCAR-3 ovarian) was over 100 µM and the TGI (UACC-62 melanoma) was over 100 µM. For the same compound, the TGI (SNB-19 CNS) was over 100 µM.
With CC1CC(C)(O)C2C3(C)CCCC2(COC3=O)C12CCC1(CCOC1=O)O2 (centres undefined) the TGI (KM12 colon) was over 250 µM, the TGI (SW-620 colon) was over 250 µM and the TGI (CAKI-1 renal) was over 250 µM. The TGI (NCI-H23 lung) was over 250 µM, the TGI (HOP-62 NSCLC) was over 250 µM and the TGI (NCI-H460 lung) was over 250 µM. For the same compound, the TGI (OVCAR-3 ovarian) was over 250 µM, the TGI (UACC-62 melanoma) was over 250 µM and the TGI (OVCAR-8 ovarian) was over 250 µM. For the same compound, the TGI (SNB-19 CNS) was over 250 µM.
With CC(=O)NC1C(OCc2ccccc2)OC(CO)C(O)C1OCC(=O)NC(C(=O)NC(CCC(=O)NCCCCCC(=O)Nc1ccc2c(c1)CN1C(=O)c3ccccc3C1=N2)C(N)=O)C(C)C (centres undefined) the TGI (KM12 colon) was 48.7 µM, the TGI (SW-620 colon) was over 100 µM and the TGI (CAKI-1 renal) was over 100 µM. The TGI (NCI-H23 lung) was over 100 µM, the TGI (HOP-62 NSCLC) was 40.8 µM and the TGI (NCI-H460 lung) was 51.2 µM. It also gave a TGI (OVCAR-3 ovarian) of over 100 µM, a TGI (UACC-62 melanoma) of 40.9 µM and a TGI (OVCAR-8 ovarian) of 79.5 µM. The TGI (SNB-19 CNS) was 47.7 µM.
Work on Cc1ccc(C(=O)NC2C(=O)NC(C(C)C)C(=O)N3CCCC3C(=O)N(C)CC(=O)N(C)C(C(C)C)C(=O)OC2C)c2c1Oc1c(c(C(=O)NC3C(=O)NC(C(C)C)C(=O)N4CCCC4C(=O)N(C)CC(=O)N(C)C(C(C)C)C(=O)OC3C)c3nc(-c4ccccc4)c(=O)oc3c1C)N2 (centres undefined) yielded a TGI (KM12 colon) of 0.00317 µM, a TGI (SW-620 colon) of 12 µM and a TGI (CAKI-1 renal) of over 100 µM. The TGI (NCI-H23 lung) was 0.0919 µM, the TGI (HOP-62 NSCLC) was 0.00223 µM and the TGI (OVCAR-8 ovarian) was 0.0273 µM. For the same compound, the TGI (SNB-19 CNS) was 21.4 µM.
c1ccc(-c2cc3nc4ccccc4nc3cc(-c3ccccc3)[nH][nH]2)cc1 showed a TGI (KM12 colon) of over 100 µM, a TGI (SW-620 colon) of over 100 µM and a TGI (CAKI-1 renal) of over 100 µM. The TGI (NCI-H23 lung) was over 100 µM, the TGI (HOP-62 NSCLC) was 66.9 µM and the TGI (NCI-H460 lung) was over 100 µM. The TGI (OVCAR-3 ovarian) was 64.7 µM, the TGI (UACC-62 melanoma) was over 100 µM and the TGI (OVCAR-8 ovarian) was over 100 µM. For the same compound, the TGI (SNB-19 CNS) was over 100 µM.
For C=C1N(C)c2ccc(S(=O)(=O)c3ccc4c(c3)C(C)(C)C(=C)N4C)cc2C1(C)C, the TGI (KM12 colon) was over 100 µM, the TGI (SW-620 colon) was over 100 µM and the TGI (CAKI-1 renal) was over 100 µM. The TGI (NCI-H23 lung) was over 100 µM, the TGI (HOP-62 NSCLC) was over 100 µM and the TGI (NCI-H460 lung) was over 100 µM. The TGI (OVCAR-3 ovarian) was over 100 µM, the TGI (UACC-62 melanoma) was over 100 µM and the TGI (OVCAR-8 ovarian) was over 100 µM. For the same compound, the TGI (SNB-19 CNS) was over 100 µM.
In the case of COC(=O)[C@]12CC[C@H]3CN(S(=O)(=O)c4ccc(C)cc4)[C@H]([C@H]31)[C@H](c1ccco1)N2S(=O)(=O)c1ccc(C)cc1, the TGI (KM12 colon) is reported as over 100 µM, the TGI (SW-620 colon) is reported as over 100 µM and the TGI (CAKI-1 renal) is reported as over 100 µM. For the same compound, the TGI (NCI-H23 lung) was over 100 µM, the TGI (HOP-62 NSCLC) was over 100 µM and the TGI (NCI-H460 lung) was over 100 µM. It also gave a TGI (OVCAR-3 ovarian) of over 100 µM, a TGI (UACC-62 melanoma) of 69.3 µM and a TGI (OVCAR-8 ovarian) of over 100 µM. It also gave a TGI (SNB-19 CNS) of over 100 µM.
C[C@@]12CC[C@@H](O)C[C@@H]1CC[C@H]1[C@H]2CC[C@@]2(C)[C@H](c3ccc(=O)oc3)CC[C@@]12O gave a GI50 (KM12 colon) of under 0.0123 µM, a TGI (KM12 colon) of 0.153 µM and a GI50 (SW-620 colon) of under 0.01 µM. For the same compound, the TGI (SW-620 colon) was 0.018 µM, the GI50 (CAKI-1 renal) was under 0.01 µM and the TGI (CAKI-1 renal) was 0.0148 µM. It also gave a GI50 (NCI-H23 lung) of under 0.01 µM, a TGI (NCI-H23 lung) of 0.0226 µM and a GI50 (HOP-62 NSCLC) of under 0.01 µM. For the same compound, the TGI (HOP-62 NSCLC) was 0.0156 µM, the GI50 (OVCAR-3 ovarian) was under 0.01 µM and the TGI (OVCAR-3 ovarian) was 0.0268 µM. It also gave a GI50 (UACC-62 melanoma) of under 0.0135 µM, a TGI (UACC-62 melanoma) of 0.0435 µM and a GI50 (SNB-19 CNS) of under 0.0104 µM. It also gave a TGI (SNB-19 CNS) of 0.0755 µM.
C/C=C\C1OC1(C)c1cc(=O)c2c(C)cc3c(c2o1)C(=O)c1c(O)c(C2CC(C)(N(C)C)C(OC(C)=O)C(C)O2)cc(C2CC(N(C)C)C(O)C(C)O2)c1C3=O (centres undefined) showed a TGI (KM12 colon) of 0.0109 µM, a TGI (SW-620 colon) of 0.0369 µM and a TGI (CAKI-1 renal) of 0.0431 µM. The TGI (NCI-H23 lung) was 0.00871 µM, the TGI (HOP-62 NSCLC) was 0.0121 µM and the TGI (NCI-H460 lung) was 0.0129 µM. It also gave a TGI (OVCAR-3 ovarian) of 0.0365 µM, a TGI (UACC-62 melanoma) of 0.00504 µM and a TGI (OVCAR-8 ovarian) of 0.0177 µM. The TGI (SNB-19 CNS) was 0.103 µM.
Work on CCn1c2ccccc2c2ccc(C3C4C(=O)N(c5cccc6ccccc56)C(=O)C4ON3C(C(N)=O)c3ccccc3)cc21 (centres undefined) yielded a TGI (KM12 colon) of over 25 µM, a TGI (SW-620 colon) of over 25 µM and a TGI (CAKI-1 renal) of 11.3 µM. It also gave a TGI (NCI-H23 lung) of over 25 µM, a TGI (HOP-62 NSCLC) of over 25 µM and a TGI (NCI-H460 lung) of over 25 µM. It also gave a TGI (OVCAR-3 ovarian) of over 25 µM, a TGI (UACC-62 melanoma) of over 25 µM and a TGI (OVCAR-8 ovarian) of over 25 µM. It also gave a TGI (SNB-19 CNS) of over 25 µM.
CCCCCCC(=O)OC[n+]1ccc(-c2c(COC(=O)NC(C)C)c(COC(=O)NC(C)C)c3n2CCC3)cc1 was tested, and the TGI (KM12 colon) was over 100 µM, the TGI (SW-620 colon) was over 100 µM and the TGI (CAKI-1 renal) was 99.4 µM. It also gave a TGI (NCI-H23 lung) of over 100 µM, a TGI (HOP-62 NSCLC) of over 100 µM and a TGI (NCI-H460 lung) of over 100 µM. It also gave a TGI (OVCAR-3 ovarian) of over 100 µM, a TGI (UACC-62 melanoma) of over 100 µM and a TGI (OVCAR-8 ovarian) of over 100 µM. The TGI (SNB-19 CNS) was over 100 µM.
In the case of C/C(=C\[Si](C)(C)c1ccco1)C(C)(O)[C@H](C)O (some centres undefined), the TGI (KM12 colon) is reported as over 100 µM, the TGI (SW-620 colon) is reported as over 100 µM and the TGI (CAKI-1 renal) is reported as over 100 µM. The TGI (NCI-H23 lung) was 86.4 µM, the TGI (HOP-62 NSCLC) was over 100 µM and the TGI (NCI-H460 lung) was over 100 µM. The TGI (OVCAR-3 ovarian) was over 100 µM, the TGI (UACC-62 melanoma) was over 100 µM and the TGI (OVCAR-8 ovarian) was over 100 µM. The TGI (SNB-19 CNS) was over 100 µM.
For CC(C)CC(N)C(=O)NC(CNC(CCC(N)=O)C(=O)NC(CC(C)C)C(=O)NC(CC(C)C)C(=O)O)Cc1ccc2ccccc2c1 (centres undefined), the TGI (KM12 colon) was over 10 µM, the TGI (SW-620 colon) was over 10 µM and the TGI (CAKI-1 renal) was over 10 µM. For the same compound, the TGI (NCI-H23 lung) was over 10 µM, the TGI (HOP-62 NSCLC) was over 10 µM and the TGI (NCI-H460 lung) was over 10 µM. The TGI (OVCAR-3 ovarian) was over 10 µM, the TGI (UACC-62 melanoma) was over 10 µM and the TGI (OVCAR-8 ovarian) was over 10 µM. The TGI (SNB-19 CNS) was over 10 µM.
Work on CCCCCCCCCCCCCCCCCCN(C)CC(COC)OP(=O)([O-])OCC[N+](C)(C)C (centres undefined) yielded a TGI (KM12 colon) of 1.62 µM, a TGI (SW-620 colon) of 15.6 µM and a TGI (CAKI-1 renal) of 5.27 µM. The TGI (NCI-H23 lung) was 11.7 µM, the TGI (HOP-62 NSCLC) was 5.17 µM and the TGI (NCI-H460 lung) was 2.35 µM. The TGI (OVCAR-3 ovarian) was 11.2 µM, the TGI (UACC-62 melanoma) was 14.9 µM and the TGI (OVCAR-8 ovarian) was 14.2 µM. For the same compound, the TGI (SNB-19 CNS) was 2.5 µM.
C=C(C)[C@@H]1CC[C@]2(C(=O)O)CC[C@]3(C)[C@H](CC[C@@H]4[C@@]5(C)C/C(=C/c6ccco6)C(=O)C(C)(C)[C@@H]5CC[C@]43C)[C@@H]12 gave a GI50 (SW-620 colon) of 2.52 µM, a TGI (SW-620 colon) of 6.89 µM and a GI50 (CAKI-1 renal) of 3.5 µM. It also gave a TGI (CAKI-1 renal) of over 100 µM, a GI50 (HOP-62 NSCLC) of 2.77 µM and a TGI (HOP-62 NSCLC) of 31.3 µM. The GI50 (OVCAR-3 ovarian) was 1.72 µM, the TGI (OVCAR-3 ovarian) was 3.58 µM and the GI50 (OVCAR-8 ovarian) was 3.5 µM. The TGI (OVCAR-8 ovarian) was over 100 µM.
O=C(O)C1=C(CO)Oc2cc3c(cc2C1c1ccc2c(c1)OCO2)OCO3 (centres undefined) gave a TGI (SW-620 colon) of over 100 µM, a TGI (CAKI-1 renal) of over 100 µM and a TGI (NCI-H23 lung) of over 100 µM. It also gave a TGI (HOP-62 NSCLC) of over 100 µM, a TGI (NCI-H460 lung) of over 100 µM and a TGI (OVCAR-3 ovarian) of over 100 µM. The TGI (UACC-62 melanoma) was over 100 µM, the TGI (OVCAR-8 ovarian) was over 100 µM and the TGI (SNB-19 CNS) was over 100 µM.

Reference: PubChem BioAssay (NCI)
